In patent publication US20060014940A1, “Cloning and characterization of slc26a6, slc26a1, and slc26a2 anion exchangers” (priority 2002, published 2006):
One block for each compound: values may come before it.

Key:
[1] = biological target: T1, mouse SLC26A6b (Mus musculus, UniProt Q8CIW6, R572P); experiment: Radiolabelled anion uptake/exchange in Xenopus oocytes expressing mouse SLC26A6b; format: cell-based; settings: for exchange of SO4 2− with extracellular anion (trans-stimulation of 35SO4 efflux): 10 mM of the anion, 30 minutes (FIG. 7C); for cis-inhibition of Cl−—Cl− exchange / cis-inhibition of SO4 2− transport: 25 mM of the anion; for cis-inhibition of Cl−—Cl− exchange: 36Cl− uptake one hour (FIG. 7A); for cis-inhibition of SO4 2− transport: 35SO4 uptake one hour (FIG. 7B); for 36Cl− uptake: 8.3 mM 36Cl
T1 construct: Full-length mouse SLC26A6b and SLC26A 1 cDNAs were cloned into the Xenopus expression vector pGEMHE; expressed in transfected cells; host or cells: Xenopus laevis oocytes injected with in vitro transcribed cRNA (pGEMHE)
T1 sequence (Q8CIW6 24-758 R572P limits assumed): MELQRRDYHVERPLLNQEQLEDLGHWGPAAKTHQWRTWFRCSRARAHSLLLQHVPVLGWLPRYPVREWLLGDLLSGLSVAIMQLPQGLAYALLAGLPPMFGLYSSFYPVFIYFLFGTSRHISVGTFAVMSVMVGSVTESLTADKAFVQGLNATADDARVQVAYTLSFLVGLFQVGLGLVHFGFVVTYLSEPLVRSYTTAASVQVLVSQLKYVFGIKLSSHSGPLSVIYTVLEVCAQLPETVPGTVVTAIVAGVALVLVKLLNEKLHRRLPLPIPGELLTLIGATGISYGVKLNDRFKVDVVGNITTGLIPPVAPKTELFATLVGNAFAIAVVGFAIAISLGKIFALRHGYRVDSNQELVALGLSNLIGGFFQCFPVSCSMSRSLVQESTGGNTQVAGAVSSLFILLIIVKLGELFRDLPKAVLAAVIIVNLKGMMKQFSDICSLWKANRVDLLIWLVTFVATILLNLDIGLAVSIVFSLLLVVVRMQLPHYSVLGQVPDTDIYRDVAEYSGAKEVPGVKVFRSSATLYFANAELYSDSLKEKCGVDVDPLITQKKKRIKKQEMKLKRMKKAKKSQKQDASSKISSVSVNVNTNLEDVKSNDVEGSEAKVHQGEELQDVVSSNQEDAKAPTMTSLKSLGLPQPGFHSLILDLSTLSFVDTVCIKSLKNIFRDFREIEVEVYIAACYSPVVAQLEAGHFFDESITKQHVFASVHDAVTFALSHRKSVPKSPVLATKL
Procedure: (§1) Full-length mouse SLC26A6b and SLC26A 1 cDNAs were cloned into the Xenopus expression vector pGEMHE (Liman et al., 1992). The SLC26A6 and SLC26A1 expression constructs were linearized, and cRNA was transcribed in vitro using T7 RNA polymerase and a […] MMACHINE® transcription kit (Ambion, Inc. of Austin, Tex., United States of America). Defolliculated oocytes were injected with 25 nl to 50 nl of water or with a solution containing cRNA at a concentration of 0.5 μg/μl (12.5 ng to 25 ng per oocyte) using a Nanoliter-2000 injector (WPI Instruments of Sarasota, Fla., United States of America). Oocytes were incubated at 17° C. in 50% Leibovitz's L-15 media supplemented with penicillin/streptomycin (1000 units/ml) and glutamine for 2-3 days for uptake assays.
(§2) For sulphate uptake assays, oocytes were pre-incubated for 20 minutes in chloride-free uptake medium (100 mM NMDG gluconate, 2 mM potassium gluconate, 1 mM calcium gluconate, 1 mM magnesium gluconate, 10 mM HEPES-Tris, pH 6.0 or pH 7.5 as indicated), followed by a 60-minute period for uptake in the same medium supplemented with 1 mM K2^35SO4 (40 μCi/ml). The cells were then washed three times in uptake buffer with 5 mM cold K2SO4 to remove tracer activity in the extracellular fluid. The oocytes were dissolved individually in 10% SDS, and tracer activity was determined by scintillation counting. Uptake of chloride, formate, and oxalate was assayed using the same chloride-free uptake solutions, substituting 8.3 mM ^36Cl, 500 μM [^14C]oxalate, or 50 μM [^14C]formate for labeled sulphate.
(§3) For sulphate exchange and cis-inhibition experiments, the concentration of NMDG-gluconate in the uptake solution was adjusted to maintain isotonic osmolality, which was confirmed experimentally using a FISKE® osmometer (Fiske Associates, Inc. of Bethel, Conn., United States of America).

[2] = biological target: T2, mouse SLC26A1 (Mus musculus, UniProt P58735, C691Y); experiment: Radiolabelled anion uptake in Xenopus oocytes expressing mouse SLC26A1; format: cell-based; settings: for effect of extracellular anion on SO4 2− transport via SLC26A1: 25 mM of the anion (FIG. 9A, 6C); for transport via SLC26A1: FIG. 6B, FIG. 8B
T2 construct: Full-length mouse SLC26A6b and SLC26A 1 cDNAs were cloned into the Xenopus expression vector pGEMHE; expressed in transfected cells; host or cells: Xenopus laevis oocytes injected with in vitro transcribed cRNA (pGEMHE)
T2 sequence (P58735 1-704 C691Y): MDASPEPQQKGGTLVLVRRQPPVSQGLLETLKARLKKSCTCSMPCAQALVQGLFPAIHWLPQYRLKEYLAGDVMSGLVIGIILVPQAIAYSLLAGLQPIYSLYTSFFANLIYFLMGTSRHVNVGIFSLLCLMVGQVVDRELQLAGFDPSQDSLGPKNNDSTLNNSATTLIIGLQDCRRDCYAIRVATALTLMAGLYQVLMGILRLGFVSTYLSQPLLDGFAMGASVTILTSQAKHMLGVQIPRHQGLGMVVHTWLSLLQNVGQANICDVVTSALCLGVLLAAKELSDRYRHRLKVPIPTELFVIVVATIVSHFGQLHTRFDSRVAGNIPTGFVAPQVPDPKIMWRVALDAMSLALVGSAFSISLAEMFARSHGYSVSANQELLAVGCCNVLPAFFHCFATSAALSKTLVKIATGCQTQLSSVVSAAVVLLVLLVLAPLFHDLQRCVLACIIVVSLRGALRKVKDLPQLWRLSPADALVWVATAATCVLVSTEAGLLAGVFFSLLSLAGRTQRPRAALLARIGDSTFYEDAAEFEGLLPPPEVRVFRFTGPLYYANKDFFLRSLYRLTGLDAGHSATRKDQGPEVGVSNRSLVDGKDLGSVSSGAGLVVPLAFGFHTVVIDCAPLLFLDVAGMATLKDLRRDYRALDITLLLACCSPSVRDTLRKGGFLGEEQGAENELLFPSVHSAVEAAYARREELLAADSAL
Procedure: as §1, §2, §3

[3] = biological target: mouse SLC26A2 (Mus musculus, UniProt Q62273)
Procedure: as §2

[4] = test system: human SLC26A6
From the text: FIG. 13 depicts chloride uptake in Xenopus oocytes expressing Xenopus xPDS2, human SLC26A3 (DRA), mouse Slc26a6, and human SLC26A6, with extracellular pH of 7.5 (open bars) or 6.0 (dark fill).
FIG. 15 depicts sulphate transport mediated by Xenopus oocytes expressing human SLC26A6, at varying concentrations of extracellular SO4^2− and constant amounts of tracer ^35SO4^2−.
A feature of the mammalian SLC26 gene family is relatively low conservation between orthologs in mouse and man; the percent amino acid identity ranges from a low of 76% (SLC26A8) to a high of 90% (SLC26A9), versus the reported median of 86% for mouse and human orthologous genes. Makalowski, W. & Boguski, 1998. This sequence divergence is reflected in functional variation, which can be exploited for structure-function analysis.

[5] = test system: xPDS3; experiment: Anion transport in Xenopus oocytes expressing xPDS3; format: cell-based, Xenopus laevis
From the text: (§4) One or more of these xPDS genes likely corresponds to the Xenopus descendant of mammalian SLC26A3.

[6] = test system: xPDS1; experiment: Anion transport in Xenopus oocytes expressing xPDS1; format: cell-based, Xenopus laevis
From the text: as §4

[7] = test system: xPDS2; experiment: Anion transport in Xenopus oocytes expressing xPDS2; format: cell-based, Xenopus laevis
From the text: as §4

[8] = biological target: SLC26A1 (Rattus norvegicus, UniProt P45380); settings: Markovich & James, 1999; cited from earlier work
[9] = biological target: T1, mouse SLC26A6b; experiment: Radiolabelled anion uptake/exchange in Xenopus oocytes expressing mouse SLC26A6b; format: cell-based; settings: pH 7.4; DIDS 1 mM (FIG. 6A)
[10] = biological target: rat SLC26A1 (Rattus norvegicus, UniProt P45380); settings: Satoh et al., 1998; cited from earlier work
[11] = test system: xSLC26A6; settings: FIG. 17
From the text: as §4

Sequence of mouse SLC26A2 (Q62273 whole entry): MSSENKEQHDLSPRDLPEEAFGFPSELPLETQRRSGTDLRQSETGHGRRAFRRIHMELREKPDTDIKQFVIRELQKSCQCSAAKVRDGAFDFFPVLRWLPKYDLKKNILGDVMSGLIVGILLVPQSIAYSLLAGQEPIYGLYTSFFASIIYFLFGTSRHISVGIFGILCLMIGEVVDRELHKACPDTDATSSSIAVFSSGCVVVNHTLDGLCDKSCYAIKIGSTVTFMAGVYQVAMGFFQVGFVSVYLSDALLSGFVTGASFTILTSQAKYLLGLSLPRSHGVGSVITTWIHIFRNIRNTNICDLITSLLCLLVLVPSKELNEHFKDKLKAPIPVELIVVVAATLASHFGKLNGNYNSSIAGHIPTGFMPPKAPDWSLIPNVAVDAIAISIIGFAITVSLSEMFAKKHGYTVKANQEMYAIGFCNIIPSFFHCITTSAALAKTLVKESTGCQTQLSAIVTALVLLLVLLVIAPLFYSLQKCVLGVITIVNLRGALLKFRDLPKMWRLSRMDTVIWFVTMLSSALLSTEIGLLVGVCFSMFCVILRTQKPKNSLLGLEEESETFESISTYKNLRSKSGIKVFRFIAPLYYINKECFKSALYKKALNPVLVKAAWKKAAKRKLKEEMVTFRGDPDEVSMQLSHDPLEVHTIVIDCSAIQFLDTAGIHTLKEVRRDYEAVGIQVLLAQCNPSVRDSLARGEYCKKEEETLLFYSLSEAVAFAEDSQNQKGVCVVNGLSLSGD
Sequence of SLC26A1 (P45380 whole entry): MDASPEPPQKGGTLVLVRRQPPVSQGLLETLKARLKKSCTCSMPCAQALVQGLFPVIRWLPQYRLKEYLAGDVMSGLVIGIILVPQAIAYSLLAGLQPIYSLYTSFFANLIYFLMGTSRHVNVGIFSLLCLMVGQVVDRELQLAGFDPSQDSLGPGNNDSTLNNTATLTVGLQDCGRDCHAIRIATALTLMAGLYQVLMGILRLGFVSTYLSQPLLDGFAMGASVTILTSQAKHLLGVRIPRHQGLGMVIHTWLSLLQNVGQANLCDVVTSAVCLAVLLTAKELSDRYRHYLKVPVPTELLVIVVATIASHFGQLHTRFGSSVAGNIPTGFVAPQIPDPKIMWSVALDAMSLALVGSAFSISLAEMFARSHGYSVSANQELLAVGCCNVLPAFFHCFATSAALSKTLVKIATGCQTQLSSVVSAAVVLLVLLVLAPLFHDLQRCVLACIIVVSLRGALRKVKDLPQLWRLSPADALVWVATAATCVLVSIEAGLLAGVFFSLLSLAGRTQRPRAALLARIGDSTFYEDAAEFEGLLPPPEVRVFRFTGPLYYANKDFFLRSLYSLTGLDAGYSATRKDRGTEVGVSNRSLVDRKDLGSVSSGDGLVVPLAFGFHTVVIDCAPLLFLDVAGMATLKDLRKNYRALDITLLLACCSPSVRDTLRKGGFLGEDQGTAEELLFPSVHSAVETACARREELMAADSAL
Sequence of rat SLC26A1 (P45380 whole entry): as above

Compound: O=CO [formate]
formate uptake ([1]; 50 μM [14C]formate (FIG. 8B)): 45±5 pmol/oocyte/hour
exchange of SO4 2− with extracellular anion (trans-stimulation of 35SO4 efflux) [1]: clearly mediated exchange
cis-inhibition of Cl−—Cl− exchange [1]: significantly inhibited
effect of extracellular anion on SO4 2− transport via SLC26A1 [2]: activate
transport via SLC26A1 [2]: not transported
formate uptake ([2]; SLC26A1-injected oocytes): 7 pmol/oocyte/h

Compound: O=S(=O)(O)O [sulphate]
exchange of SO4 2− with extracellular anion (trans-stimulation of 35SO4 efflux) [1]: clearly mediated exchange
cis-inhibition of Cl−—Cl− exchange [1]: significantly inhibited
sulphate uptake at pH 7.4 versus pH 6.0 ([1]; SLC26A6b-injected oocytes): not significantly altered
sulphate uptake independent of Na+ ([1]; SLC26A6b-injected oocytes, Na+-free): 652±57 pmol/oocyte/hour
sulphate uptake independent of Cl− ([1]; SLC26A6b-injected oocytes, pH 7.4, Cl−-free medium, 1 mM 35SO4): 602±0 pmol/oocyte/hour
absolute rate of SO4 2− transport ([1]; mouse Slc26a6, increasing extracellular SO4 2− (FIG. 14)): ~4,000 pmol/oocyte/hr
35SO4 2− uptake ([3]; absence of extracellular Cl− (FIG. 10A)): robust
35SO4 2− uptake at pH 6.0 ([3]; pH 6.0 versus pH 7.4 (FIG. 10A)): increased significantly
absolute rate of SO4 2− transport ([4]; human SLC26A6, increasing extracellular SO4 2− (FIG. 15)): ~200 pmol/oocyte/hr
SO4 2− transport [5]: none of the xPDS clones transport
effect of extracellular anion on SO4 2− transport via SLC26A1 [2]: strongly cis-inhibitory
SO4 2− uptake ([2]; SLC26A1-injected oocytes (FIG. 6A)): 72±2 pmol/oocyte/h
SO4 2− transport [6]: none of the xPDS clones transport
SO4 2− transport [7]: none of the xPDS clones transport

Compound: mercury
effect on maximal sulphate transport via SLC26A1 [8]: strongly inhibited

cis-inhibition of Cl−—Cl− exchange [1]: not lactate significantly inhibited
effect of extracellular anion on SO4 2− transport via SLC26A1 [2]: activate
Compound: CC(O)C(=O)O (stereo not drawn) [lactate]

sulphate uptake, sensitivity to DIDS ([1]; pH 6.0, DIDS 1 mM (FIG. 6A)): 101±10 pmol/oocyte/hour
sulphate uptake, sensitivity to DIDS [9]: 301±24 pmol/oocyte/hour
Compound: O=S(=O)(O)c1cc(N=C=S)ccc1C=Cc1ccc(N=C=S)cc1S(=O)(=O)O [DIDS, 4,4′-diisothiocyanatostilbene-2,2′-disulfonic acid]

cis-inhibition of SO4 2− transport [1]: cis-inhibitory
cis-inhibition of Cl−—Cl− exchange [1]: cis-inhibitory
Compound: I [I^−, iodide]

Compound: O=C(O)O [HCO3^−, bicarbonate]
activation of SO4 2− uptake [10]: does not activate

cis-inhibition of SO4 2− transport [1]: cis-inhibitory
cis-inhibition of Cl−—Cl− exchange [1]: cis-inhibitory
Compound: Br [Br^−]

Compound: Cl [Cl^−, chloride]
exchange of SO4 2− with extracellular anion (trans-stimulation of 35SO4 efflux) [1]: clearly mediated exchange
36Cl− uptake ([1]; pH 6.0): 4193±109 pmol/oocyte/hour
36Cl− uptake ([1]; pH 7.4): 4345±243 pmol/oocyte/hour
effect of extracellular Cl− on 35SO4 2− uptake ([3]; 25 mM Cl− (FIG. 10B)): significantly inhibited
Cl− transport ([4]; FIG. 13): clearly transports
Cl− transport ([5]; FIG. 17): robust
effect of extracellular anion on SO4 2− transport via SLC26A1 [2]: much higher
transport via SLC26A1 [2]: not transported
Cl−—Cl− exchange ([2]; presence or absence of 25 mM SO4 2−): minimal
Cl− transport ([6]; FIG. 17): robust
Cl− transport [11]: robust
Cl− transport ([7]; FIG. 17): robust
